Experimental data: publication PMC4800810 (Biomacromolecules, 2015)

How the values were obtained:
solubility in water = format: physicochemical; conditions: 6BIO by itself, result in words
[1] = 24 h organ biodistribution in mice with femoral fracture; format: in vivo, CD4 Swiss mice; conditions: i.v.

solubility in water (solubility in water): only sparingly soluble in water
drug uptake in the fractured femur over the healthy femur ([1]; 125I-labelled analogues): no statistical difference
accumulation in the lungs, liver, and spleen ([1]; 125I-labelled, result in words): high accumulation
Substance: 6’-bromoindirubin-3’-oxime [6BIO]
